Experimental data from paper PMC6688997 (Nature Communications, 2019).
Where two headings read alike, the source gives them in different places.

Columns and labels:
DYRK2 = DYRK2 (Homo sapiens, UniProt Q92630); assay: Kinase assay, ATP Km; type: biochemical
[1] = system: U-118 MG xenograft (FIG-ROS1); type: in vivo, mouse; conditions: for Tumor volume (group average): U-118 MG xenograft
[2] = system: Ba/F3 TPM3-NTRK1 L564H cells; assay: CellTiter-Glo cell viability assay; type: cell-based, murine; conditions: Mus musculus, BaF3, 72 h
RSK2 = RSK2 (Homo sapiens, UniProt P51812); assay: Kinase assay, ATP Km; type: biochemical
ROCK1 = ROCK1 (Homo sapiens, UniProt Q13464); assay: Kinase assay, ATP Km; type: biochemical
Sequence of ROCK1 (Q13464 whole entry): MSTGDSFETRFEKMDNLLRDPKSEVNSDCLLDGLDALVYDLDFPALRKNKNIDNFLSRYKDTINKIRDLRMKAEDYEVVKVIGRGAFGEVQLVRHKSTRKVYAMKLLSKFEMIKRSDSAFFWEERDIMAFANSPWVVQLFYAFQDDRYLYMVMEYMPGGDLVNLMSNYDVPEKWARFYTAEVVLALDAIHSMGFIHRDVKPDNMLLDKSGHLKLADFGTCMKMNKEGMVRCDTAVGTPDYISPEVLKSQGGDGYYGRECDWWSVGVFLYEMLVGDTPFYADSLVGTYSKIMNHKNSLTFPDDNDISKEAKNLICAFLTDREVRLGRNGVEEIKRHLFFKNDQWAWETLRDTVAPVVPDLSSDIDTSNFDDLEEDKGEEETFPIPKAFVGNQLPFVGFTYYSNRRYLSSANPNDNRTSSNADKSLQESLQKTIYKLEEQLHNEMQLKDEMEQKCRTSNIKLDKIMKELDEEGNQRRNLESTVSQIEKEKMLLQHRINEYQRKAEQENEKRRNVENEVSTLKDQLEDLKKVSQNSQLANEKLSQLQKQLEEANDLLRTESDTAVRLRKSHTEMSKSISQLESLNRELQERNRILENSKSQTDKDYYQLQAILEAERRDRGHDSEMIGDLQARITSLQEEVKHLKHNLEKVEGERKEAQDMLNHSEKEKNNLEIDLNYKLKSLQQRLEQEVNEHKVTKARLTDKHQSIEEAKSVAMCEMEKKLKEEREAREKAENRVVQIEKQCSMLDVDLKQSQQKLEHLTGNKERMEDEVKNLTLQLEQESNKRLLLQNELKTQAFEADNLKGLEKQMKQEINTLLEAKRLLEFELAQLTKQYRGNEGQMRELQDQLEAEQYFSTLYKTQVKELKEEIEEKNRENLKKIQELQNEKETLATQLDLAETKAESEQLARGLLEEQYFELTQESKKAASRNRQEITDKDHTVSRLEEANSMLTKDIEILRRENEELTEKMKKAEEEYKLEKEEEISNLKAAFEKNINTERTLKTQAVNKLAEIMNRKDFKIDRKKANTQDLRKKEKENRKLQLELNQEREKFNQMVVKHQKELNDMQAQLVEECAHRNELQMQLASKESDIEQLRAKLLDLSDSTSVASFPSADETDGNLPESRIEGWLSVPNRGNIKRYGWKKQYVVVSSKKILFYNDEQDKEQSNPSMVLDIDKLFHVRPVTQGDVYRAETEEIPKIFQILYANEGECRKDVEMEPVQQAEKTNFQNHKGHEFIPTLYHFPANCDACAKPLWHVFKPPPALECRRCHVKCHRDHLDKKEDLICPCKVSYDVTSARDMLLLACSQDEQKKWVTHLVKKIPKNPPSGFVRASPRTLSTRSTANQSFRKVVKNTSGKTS

MUSK = target: T1, MUSK (Homo sapiens, UniProt O15146); assay: Kinase assay, ATP Km; type: biochemical
T1 construct: purchased Carna Biosciences
T1 sequence (O15146 24-869): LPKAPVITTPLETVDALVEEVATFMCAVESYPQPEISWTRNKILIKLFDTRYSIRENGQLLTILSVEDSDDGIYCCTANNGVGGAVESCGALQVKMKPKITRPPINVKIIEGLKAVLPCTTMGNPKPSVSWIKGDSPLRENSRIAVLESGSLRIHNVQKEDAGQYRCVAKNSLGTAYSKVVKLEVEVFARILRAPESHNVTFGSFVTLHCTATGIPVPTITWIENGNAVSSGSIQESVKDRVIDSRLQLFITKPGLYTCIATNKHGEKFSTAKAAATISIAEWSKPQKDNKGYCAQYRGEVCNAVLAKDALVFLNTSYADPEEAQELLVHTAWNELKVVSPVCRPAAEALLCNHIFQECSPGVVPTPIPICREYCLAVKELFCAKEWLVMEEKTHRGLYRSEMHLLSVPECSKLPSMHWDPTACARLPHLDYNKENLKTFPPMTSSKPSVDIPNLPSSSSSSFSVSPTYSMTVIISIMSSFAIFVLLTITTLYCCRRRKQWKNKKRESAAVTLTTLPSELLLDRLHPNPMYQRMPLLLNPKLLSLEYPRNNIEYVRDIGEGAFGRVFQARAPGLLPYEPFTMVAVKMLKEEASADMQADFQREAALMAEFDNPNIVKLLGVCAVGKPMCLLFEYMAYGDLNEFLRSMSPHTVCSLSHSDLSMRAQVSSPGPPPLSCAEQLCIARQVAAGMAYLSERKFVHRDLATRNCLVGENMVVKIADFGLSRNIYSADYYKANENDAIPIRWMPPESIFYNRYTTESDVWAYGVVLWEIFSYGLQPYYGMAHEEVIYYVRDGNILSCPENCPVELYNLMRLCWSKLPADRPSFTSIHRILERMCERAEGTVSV

MINK = target: T2, MINK (Homo sapiens, UniProt Q8N4C8); assay: Kinase assay, ATP Km; type: biochemical
T2 construct: purchased Carna Biosciences

FLT4 = target: T3, FLT4 (Homo sapiens, UniProt P35916); assay: Kinase assay, ATP Km; type: biochemical
T3 construct: purchased Carna Biosciences

FLT3 = target: T4, FLT3 (Homo sapiens, UniProt P36888); assay: Kinase assay, ATP Km; type: biochemical
T4 construct: purchased Carna Biosciences

ZAP70 = target: T5, ZAP70 (Homo sapiens, UniProt P43403); assay: Kinase assay, ATP Km; type: biochemical
T5 construct: purchased Carna Biosciences

PKCε = target: T6, PKCε (Homo sapiens, UniProt Q02156); assay: Kinase assay, ATP Km; type: biochemical
T6 construct: purchased Carna Biosciences

IGF1R = target: T7, IGF1R (Homo sapiens, UniProt P08069); assay: Kinase assay, ATP Km; type: biochemical
T7 construct: purchased Carna Biosciences

FES = FES (Homo sapiens, UniProt P07332); assay: Kinase assay, ATP Km; type: biochemical
Sequence of FES (P07332 whole entry): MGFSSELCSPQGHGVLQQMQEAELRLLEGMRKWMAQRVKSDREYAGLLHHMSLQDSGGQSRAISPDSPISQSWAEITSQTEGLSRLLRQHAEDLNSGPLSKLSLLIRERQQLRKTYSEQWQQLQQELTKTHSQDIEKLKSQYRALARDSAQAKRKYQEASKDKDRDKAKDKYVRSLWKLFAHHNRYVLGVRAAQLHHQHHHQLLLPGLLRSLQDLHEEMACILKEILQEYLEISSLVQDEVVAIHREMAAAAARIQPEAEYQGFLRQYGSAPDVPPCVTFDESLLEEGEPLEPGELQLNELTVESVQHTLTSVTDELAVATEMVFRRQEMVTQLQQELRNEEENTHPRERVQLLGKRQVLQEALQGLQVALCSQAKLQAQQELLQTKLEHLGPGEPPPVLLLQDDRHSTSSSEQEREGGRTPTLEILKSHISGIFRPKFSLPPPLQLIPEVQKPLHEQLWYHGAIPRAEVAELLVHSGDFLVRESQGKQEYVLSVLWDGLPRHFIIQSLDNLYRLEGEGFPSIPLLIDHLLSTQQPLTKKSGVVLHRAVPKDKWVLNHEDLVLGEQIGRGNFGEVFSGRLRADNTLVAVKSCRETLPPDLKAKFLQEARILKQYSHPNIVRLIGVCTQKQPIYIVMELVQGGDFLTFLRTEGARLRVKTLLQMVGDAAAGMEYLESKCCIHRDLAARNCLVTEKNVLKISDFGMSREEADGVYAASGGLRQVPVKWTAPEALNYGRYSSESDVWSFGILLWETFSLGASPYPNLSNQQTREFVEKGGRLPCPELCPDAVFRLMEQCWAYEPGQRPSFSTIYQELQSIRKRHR

skMLCK = skMLCK (Homo sapiens, UniProt Q9H1R3); assay: Kinase assay, ATP Km; type: biochemical
MRCKβ = target: T8, MRCKβ (Homo sapiens, UniProt Q9Y5S2); assay: Kinase assay, ATP Km; type: biochemical
T8 construct: purchased Carna Biosciences
T8 sequence (Q9Y5S2 whole entry): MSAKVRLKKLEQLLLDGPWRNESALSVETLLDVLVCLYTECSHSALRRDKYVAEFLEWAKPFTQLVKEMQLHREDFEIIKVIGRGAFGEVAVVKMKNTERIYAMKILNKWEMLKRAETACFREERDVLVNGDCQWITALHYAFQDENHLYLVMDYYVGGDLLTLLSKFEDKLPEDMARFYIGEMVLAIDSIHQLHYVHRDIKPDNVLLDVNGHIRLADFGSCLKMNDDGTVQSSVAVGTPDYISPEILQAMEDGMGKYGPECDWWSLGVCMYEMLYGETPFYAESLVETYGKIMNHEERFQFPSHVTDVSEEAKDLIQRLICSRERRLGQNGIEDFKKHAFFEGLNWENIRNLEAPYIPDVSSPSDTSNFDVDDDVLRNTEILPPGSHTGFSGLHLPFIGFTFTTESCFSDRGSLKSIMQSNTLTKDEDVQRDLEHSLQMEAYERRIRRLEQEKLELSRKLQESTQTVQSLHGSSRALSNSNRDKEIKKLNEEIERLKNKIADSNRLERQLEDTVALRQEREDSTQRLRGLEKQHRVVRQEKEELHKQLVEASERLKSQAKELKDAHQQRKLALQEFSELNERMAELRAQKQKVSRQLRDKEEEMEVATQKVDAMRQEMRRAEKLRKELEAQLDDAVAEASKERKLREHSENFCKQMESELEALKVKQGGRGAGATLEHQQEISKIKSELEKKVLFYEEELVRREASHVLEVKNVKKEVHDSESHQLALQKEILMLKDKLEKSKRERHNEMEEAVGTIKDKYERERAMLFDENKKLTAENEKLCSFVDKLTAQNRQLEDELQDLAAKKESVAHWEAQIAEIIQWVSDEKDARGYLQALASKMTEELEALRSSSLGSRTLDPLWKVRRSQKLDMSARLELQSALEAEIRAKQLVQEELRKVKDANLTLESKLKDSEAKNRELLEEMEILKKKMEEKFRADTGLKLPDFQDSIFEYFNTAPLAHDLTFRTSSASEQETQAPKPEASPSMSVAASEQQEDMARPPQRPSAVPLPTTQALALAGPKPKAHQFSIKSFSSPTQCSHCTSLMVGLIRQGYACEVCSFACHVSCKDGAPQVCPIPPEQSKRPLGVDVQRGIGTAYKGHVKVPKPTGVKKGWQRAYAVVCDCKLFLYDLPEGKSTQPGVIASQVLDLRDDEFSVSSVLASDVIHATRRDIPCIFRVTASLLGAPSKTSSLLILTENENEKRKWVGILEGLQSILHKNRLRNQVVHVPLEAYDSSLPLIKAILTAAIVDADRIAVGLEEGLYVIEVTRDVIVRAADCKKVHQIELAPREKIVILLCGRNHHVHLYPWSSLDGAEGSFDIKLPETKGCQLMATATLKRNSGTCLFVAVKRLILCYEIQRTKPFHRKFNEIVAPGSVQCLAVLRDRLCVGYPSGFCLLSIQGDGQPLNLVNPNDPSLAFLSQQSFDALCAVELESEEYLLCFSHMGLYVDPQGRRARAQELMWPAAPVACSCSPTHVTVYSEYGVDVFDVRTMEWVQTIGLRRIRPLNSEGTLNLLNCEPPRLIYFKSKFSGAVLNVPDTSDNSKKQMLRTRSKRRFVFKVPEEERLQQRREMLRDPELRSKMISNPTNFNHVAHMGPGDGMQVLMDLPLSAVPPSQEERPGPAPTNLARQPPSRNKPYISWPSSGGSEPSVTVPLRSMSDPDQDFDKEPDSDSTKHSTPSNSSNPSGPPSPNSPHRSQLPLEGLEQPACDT

FYN(isoform a) = FYN(isoform a) (Homo sapiens, UniProt P06241); assay: Kinase assay, 1 mM ATP; type: biochemical; set-up: purchased Carna Biosciences
Method: (§1) An off-chip mobility shift assay was performed by Carna Biosciences, Inc. (Kobe, Japan), according to their product instructions. […] The IC50 values were estimated according to the four-parameter logistic model.

FYN(isoform b) = FYN(isoform b) (Homo sapiens, UniProt P06241); assay: Kinase assay, 1 mM ATP; type: biochemical; set-up: purchased Carna Biosciences
Sequence of FYN(isoform b) (P06241 1-534 isoform P06241-2): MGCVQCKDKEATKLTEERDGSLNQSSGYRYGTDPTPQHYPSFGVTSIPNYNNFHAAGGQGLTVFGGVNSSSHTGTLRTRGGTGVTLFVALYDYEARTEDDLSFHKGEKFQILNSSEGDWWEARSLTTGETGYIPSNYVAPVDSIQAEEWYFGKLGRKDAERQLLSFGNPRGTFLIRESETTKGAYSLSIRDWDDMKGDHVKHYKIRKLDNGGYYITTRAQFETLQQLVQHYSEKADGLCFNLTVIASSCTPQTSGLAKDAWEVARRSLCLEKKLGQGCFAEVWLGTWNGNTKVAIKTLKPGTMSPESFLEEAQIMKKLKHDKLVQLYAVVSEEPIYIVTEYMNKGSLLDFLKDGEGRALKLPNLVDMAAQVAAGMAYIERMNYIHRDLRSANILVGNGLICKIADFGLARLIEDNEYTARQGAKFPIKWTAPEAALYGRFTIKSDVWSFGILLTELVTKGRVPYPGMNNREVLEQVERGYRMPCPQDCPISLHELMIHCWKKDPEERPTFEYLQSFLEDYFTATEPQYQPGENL
Method: as §1

EPHB2 = EPHB2 (Homo sapiens, UniProt P29323); assay: Kinase assay, ATP Km; type: biochemical
[3] = system: EML4-ALK I1171N induced Ba/F3 cells; assay: CellTiter-Glo cell viability assay; type: cell-based, murine; conditions: Mus musculus, BaF3, 72 h; read-out: IC50

Sequence of DYRK2 (Q92630 whole entry): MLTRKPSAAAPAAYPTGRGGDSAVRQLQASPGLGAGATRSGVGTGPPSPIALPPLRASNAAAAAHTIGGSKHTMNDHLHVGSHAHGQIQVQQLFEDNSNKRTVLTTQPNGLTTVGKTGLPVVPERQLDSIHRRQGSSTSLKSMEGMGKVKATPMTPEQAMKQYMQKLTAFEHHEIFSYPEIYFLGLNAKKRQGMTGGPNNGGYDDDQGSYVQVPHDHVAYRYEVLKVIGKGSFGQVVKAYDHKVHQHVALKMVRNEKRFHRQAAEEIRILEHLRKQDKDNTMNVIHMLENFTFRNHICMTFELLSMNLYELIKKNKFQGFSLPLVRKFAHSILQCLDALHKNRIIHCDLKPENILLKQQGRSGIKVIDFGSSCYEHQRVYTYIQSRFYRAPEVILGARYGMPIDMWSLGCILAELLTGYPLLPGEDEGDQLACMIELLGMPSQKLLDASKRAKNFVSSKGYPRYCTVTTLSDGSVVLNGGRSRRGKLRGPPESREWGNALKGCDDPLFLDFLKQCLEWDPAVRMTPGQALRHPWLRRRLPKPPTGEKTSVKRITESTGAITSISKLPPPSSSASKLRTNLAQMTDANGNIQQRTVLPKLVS

## C[C@@H](N)COc1ccc(-c2cnc3ccc(N[C@H](C)c4cccc(F)c4)nn23)cc1.O=C(O)CCCCC(=O)O [DS-6051b]
DYRK2
  inhibition at 0.04 µM: 5.3%
[1]; 25 mg/kg po, day 0
  Tumor volume (group average): 154 mm³
[1]; 25 mg/kg po, day 2
  Tumor volume (group average): 178 mm³
[1]; 25 mg/kg po, day 4
  Tumor volume (group average): 195 mm³
[1]; 25 mg/kg po, day 7
  Tumor volume (group average): 175 mm³
[1]; 25 mg/kg po, day 9
  Tumor volume (group average): 197 mm³
[1]; 25 mg/kg po, day 11
  Tumor volume (group average): 216 mm³
[1]; 25 mg/kg po, day 14
  Tumor volume (group average): 208 mm³
[1]; 25 mg/kg po, day 16
  Tumor volume (group average): 215 mm³
[1]; 25 mg/kg po, day 18
  Tumor volume (group average): 206 mm³
[1]; 50 mg/kg po, day 0
  Tumor volume (group average): 150 mm³
[1]; 50 mg/kg po, day 2
  Tumor volume (group average): 158 mm³
[1]; 50 mg/kg po, day 4
  Tumor volume (group average): 175 mm³
[1]; 50 mg/kg po, day 7
  Tumor volume (group average): 167 mm³
[1]; 50 mg/kg po, day 9
  Tumor volume (group average): 183 mm³
[1]; 50 mg/kg po, day 11
  Tumor volume (group average): 194 mm³
[1]; 50 mg/kg po, day 14
  Tumor volume (group average): 187 mm³
[1]; 50 mg/kg po, day 16
  Tumor volume (group average): 188 mm³
[1]; 50 mg/kg po, day 18
  Tumor volume (group average): 202 mm³
[1]; 100 mg/kg po, day 0
  Tumor volume (group average): 150 mm³
[1]; 100 mg/kg po, day 2
  Tumor volume (group average): 132 mm³
[1]; 100 mg/kg po, day 4
  Tumor volume (group average): 142 mm³
[1]; 100 mg/kg po, day 7
  Tumor volume (group average): 124 mm³
[1]; 100 mg/kg po, day 9
  Tumor volume (group average): 140 mm³
[1]; 100 mg/kg po, day 11
  Tumor volume (group average): 150 mm³
[1]; 100 mg/kg po, day 14
  Tumor volume (group average): 144 mm³
[1]; 100 mg/kg po, day 16
  Tumor volume (group average): 145 mm³
[1]; 100 mg/kg po, day 18
  Tumor volume (group average): 154 mm³
[1]; 200 mg/kg po, day 0
  Tumor volume (group average): 149 mm³
[1]; 200 mg/kg po, day 2
  Tumor volume (group average): 128 mm³
[1]; 200 mg/kg po, day 4
  Tumor volume (group average): 125 mm³
[1]; 200 mg/kg po, day 7
  Tumor volume (group average): 100 mm³
[1]; 200 mg/kg po, day 9
  Tumor volume (group average): 114 mm³
[1]; 200 mg/kg po, day 11
  Tumor volume (group average): 122 mm³
[1]; 200 mg/kg po, day 14
  Tumor volume (group average): 113 mm³
[1]; 200 mg/kg po, day 16
  Tumor volume (group average): 127 mm³
[1]; 200 mg/kg po, day 18
  Tumor volume (group average): 130 mm³
[1]; once daily oral gavage, 18 days
  Dose effectively inhibiting tumor growth: ≥ 25 mg/kg
[2]
  IC50: 25.8 nM
RSK2
  inhibition at 0.04 µM: 8.9%
ROCK1
  inhibition at 0.04 µM: 53%
MUSK
  inhibition at 0.04 µM: 96.7%
MUSK; 0.04μM, ATP Km
  % Inhibition: potently inhibited
MINK
  inhibition at 0.04 µM: -0.0629%
FLT4
  inhibition at 0.04 µM: 6.9%
FLT3
  inhibition at 0.04 µM: 61.4%
ZAP70
  inhibition at 0.04 µM: 4.3%
PKCε
  inhibition at 0.04 µM: 23.4%
IGF1R
  inhibition at 0.04 µM: 44.5%
FES
  inhibition at 0.04 µM: 41.2%
skMLCK
  inhibition at 0.04 µM: 4.6%
MRCKβ
  inhibition at 0.04 µM: 7.6%
FYN(isoform a)
  inhibition at 0.2 µM: 2.2%
FYN(isoform b)
  inhibition at 0.2 µM: 0.123%
EPHB2
  inhibition at 0.04 µM: 21.9%
[3]
  IC50: 938 nM
